In ChEMBL document CHEMBL1125071, “Quinazoline antifolate thymidylate synthase inhibitors: alkyl, substituted alkyl, and aryl substituents in the C2 position” (J Med Chem, 1990):
Converted amounts (≈) assume the structure as drawn.

What was measured:
[1] = system: L1210; experiment: Concentration required to inhibit 50 percent growth of L1210 mouse leukemia cells; assay type: functional, cell-based
[2] = pKa of nitrogen -1(N1) of the compound; too low to measure accurately; assay type: physicochemical
[3] = pKa of nitrogen -3(N3) of the compound; assay type: physicochemical
[4] = target: Thymidylate synthase (Mus musculus, UniProt P07607); experiment: Concentration required for in vitro inhibition of thymidylate synthase
[5] = pKa of nitrogen -1(N1) of the compound; assay type: physicochemical
[6] = Solubility in […] M aqueous NaH2PO4 buffer at pH 7.0 and 25 degree C; assay type: physicochemical; conditions: 0.92 M aqueous NaH2PO4 buffer

Thymidylate synthase, sequence (P07607 whole entry): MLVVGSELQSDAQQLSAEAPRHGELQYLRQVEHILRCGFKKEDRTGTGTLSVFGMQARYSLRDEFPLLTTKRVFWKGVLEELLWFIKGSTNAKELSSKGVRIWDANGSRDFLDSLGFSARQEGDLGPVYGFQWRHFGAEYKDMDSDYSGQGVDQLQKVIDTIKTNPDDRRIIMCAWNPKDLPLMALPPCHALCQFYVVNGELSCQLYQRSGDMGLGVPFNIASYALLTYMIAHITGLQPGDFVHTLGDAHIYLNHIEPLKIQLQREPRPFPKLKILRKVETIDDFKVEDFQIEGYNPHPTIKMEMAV

Row | IC50 [1] [nM] | IC50 [4] [nM] | Compound | other results
1 | 48000 | – | C#CCN(Cc1ccc2nc(C(C)C)[nH]c(=O)c2c1)c1ccc(C(=O)N[C@@H](CCC(=O)O)C(=O)O)cc1 | –
2 | 1200 | – | O=C(O)CC[C@H](NC(=O)c1ccc(N(CCF)Cc2ccc3nc(CF)[nH]c(=O)c3c2)cc1)C(=O)O | –
3 | 24000 | – | C#CCN(Cc1ccc2nc(C(F)F)nc(O)c2c1)c1ccc(C(=O)N[C@@H](CCC(=O)O)C(=O)O)cc1 | –
4 | – | – | Cc1ccc2nc(C(F)F)nc(O)c2c1 | pKa [2]: < 2; pKa [3]: 7.2
5 | 700 | – | CCN(Cc1ccc2nc(CF)[nH]c(=O)c2c1)c1ccc(C(=O)N[C@@H](CCC(=O)O)C(=O)O)cc1 | –
6 | 400 | – | C#CCN(Cc1ccc2nc[nH]c(=O)c2c1)c1ccc(C(=O)N[C@@H](CCC(=O)O)C(=O)O)cc1 | –
7 | 240 | 500 | Cc1nc2ccc(CN(CCO)c3ccc(C(=O)N[C@@H](CCC(=O)O)C(=O)O)cc3)cc2c(=O)[nH]1 | –
8 | 1200 | 25000 | CC(=O)CN(Cc1ccc2nc(C)[nH]c(=O)c2c1)c1ccc(C(=O)N[C@@H](CCC(=O)O)C(=O)O)cc1 | –
9 | 16000 | – | CCN(Cc1ccc2nc(CO)[nH]c(=O)c2c1)c1ccc(C(=O)N[C@@H](CCC(=O)O)C(=O)O)cc1 | –
10 | 3 | 2920 | CN(Cc1ccc2nc(CF)[nH]c(=O)c2c1)c1ccc(C(=O)N[C@@H](CCC(=O)O)C(=O)O)cc1 | –
11 | > 100000 | 12900 | COCCCN(Cc1ccc2nc(C)[nH]c(=O)c2c1)c1ccc(C(=O)N[C@@H](CCC(=O)O)C(=O)O)cc1 | –
12 | 1240 | 540 | Cc1nc2ccc(CN(CCCO)c3ccc(C(=O)N[C@@H](CCC(=O)O)C(=O)O)cc3)cc2c(=O)[nH]1 | –
13 | 400 | 240 | Cc1nc2ccc(CN(CCF)c3ccc(C(=O)N[C@@H](CCC(=O)O)C(=O)O)cc3)cc2c(=O)[nH]1 | –
14 | 20000 | – | O=C(O)CC[C@H](NC(=O)c1ccc(N(CCF)Cc2ccc3nc(CO)[nH]c(=O)c3c2)cc1)C(=O)O | –
15 | 6600 | – | C=CCN(Cc1ccc2nc(CO)[nH]c(=O)c2c1)c1ccc(C(=O)N[C@@H](CCC(=O)O)C(=O)O)cc1 | –
16 | – | – | Cc1ccc2nc(CF)nc(O)c2c1 | pKa [2]: < 2; pKa [3]: 8.5
17 | > 100000 | 1760 | Cc1nc2ccc(CN(CCS)c3ccc(C(=O)N[C@@H](CCC(=O)O)C(=O)O)cc3)cc2c(=O)[nH]1 | –
18 | 2500 | – | C#CCN(Cc1ccc2nc(CC)[nH]c(=O)c2c1)c1ccc(C(=O)N[C@@H](CCC(=O)O)C(=O)O)cc1 | –

Row | IC50 [1] [nM] | IC50 [4] [nM] | Compound | other results
19 | – | – | Cc1ccc2nc(C(F)(F)F)nc(O)c2c1 | pKa [2]: < 2; pKa [3]: 5.9
20 | 3200 | 20000 | CCc1nc2ccc(CNc3ccc(C(=O)N[C@@H](CCC(=O)O)C(=O)O)cc3)cc2c(=O)[nH]1 | –
21 | – | – | Cc1ccc2nc(C)nc(O)c2c1 | pKa [5]: 3.5; pKa [3]: 10.2
22 | 14500 | – | O=C(O)CC[C@H](NC(=O)c1ccc(N(CCO)Cc2ccc3nc(CO)[nH]c(=O)c3c2)cc1)C(=O)O | –
23 | 125000 | – | C#CCN(Cc1ccc2nc(CNC(C)=O)[nH]c(=O)c2c1)c1ccc(C(=O)N[C@@H](CCC(=O)O)C(=O)O)cc1 | –
24 | 40000 | 16300 | COCCN(Cc1ccc2nc(C)[nH]c(=O)c2c1)c1ccc(C(=O)N[C@@H](CCC(=O)O)C(=O)O)cc1 | –
25 | 100000 | – | C#CCN(Cc1ccc2nc(CSc3ncccn3)[nH]c(=O)c2c1)c1ccc(C(=O)N[C@@H](CCC(=O)O)C(=O)O)cc1 | –
26 | > 100000 | – | C#CCN(Cc1ccc2nc(C(F)(F)F)[nH]c(=O)c2c1)c1ccc(C(=O)N[C@@H](CCC(=O)O)C(=O)O)cc1 | –
27 | 13000 | – | CN(Cc1ccc2nc(CO)[nH]c(=O)c2c1)c1ccc(C(=O)N[C@@H](CCC(=O)O)C(=O)O)cc1 | –
28 | 370 | – | C#CCN(Cc1ccc2nc(CF)[nH]c(=O)c2c1)c1ccc(C(=O)N[C@@H](CCC(=O)O)C(=O)O)cc1 | –
29 | 170 | 480 | C=CCN(Cc1ccc2nc(C)[nH]c(=O)c2c1)c1ccc(C(=O)N[C@@H](CCC(=O)O)C(=O)O)cc1 | –
30 | 3400 | – | C#CCN(Cc1ccc2nc(N)[nH]c(=O)c2c1)c1ccc(C(=O)N[C@@H](CCC(=O)O)C(=O)O)cc1 | solubility [6]: 70 µg/mL (≈ 0.147 mM)
31 | 110 | 300 | Cc1nc2ccc(CN(C)c3ccc(C(=O)N[C@@H](CCC(=O)O)C(=O)O)cc3)cc2c(=O)[nH]1 | –
32 | > 100000 | – | C#CCN(Cc1ccc2nc(-c3ccccc3)[nH]c(=O)c2c1)c1ccc(C(=O)N[C@@H](CCC(=O)O)C(=O)O)cc1 | –
33 | 90 | – | C#CCN(Cc1ccc2nc(C)[nH]c(=O)c2c1)c1ccc(C(=O)N[C@@H](CCC(=O)O)C(=O)O)cc1 | solubility [6]: 3200 µg/mL (≈ 6.72 mM)
34 | 360 | 170 | CCN(Cc1ccc2nc(C)[nH]c(=O)c2c1)c1ccc(C(=O)N[C@@H](CCC(=O)O)C(=O)O)cc1 | –
35 | 70 | 4500 | Cc1nc2ccc(CNc3ccc(C(=O)N[C@@H](CCC(=O)O)C(=O)O)cc3)cc2c(=O)[nH]1 | –
36 | – | – | Cc1ccc2nc(N)nc(O)c2c1 | pKa [5]: 4.2; pKa [3]: 9.4

Row | Compound | IC50 [1] [nM] | IC50 [4] [nM] | other results
37 | Cc1nc2ccc(CN(CCBr)c3ccc(C(=O)N[C@@H](CCC(=O)O)C(=O)O)cc3)cc2c(=O)[nH]1 | 820 | 1300 | –
